The subject of one data set is ADAMTS5. The note with it: reported zinc-chelating inhibitors; cited from earlier work.
In a further data set the test system is HEK293. Also noted: method as in ChEMBL. The note with it: ref ChEMBL, cited from earlier work; for pEC50: read-out: EC50 (Standard Value).
Data set [1] deals with human non-OA chondrocytes. As to the kind of experiment: Cell viability MTS assay. The data set is classed as cell-based. The conditions noted are these: 100 µM; 72 h; vs DMSO control. On the procedure:
Non-OA human chondrocytes were isolated from knee cartilage tissues obtained from the Stanmore BioBank, Institute of Orthopaedics, Royal National Orthopaedic Hospital, Stanmore, UK, from 3 donors following informed consent and approval by the Royal Veterinary College Ethics and Welfare Committee (Institutional approval URN 2012 0048 H) as before.
(§1) Cell viability was assessed using CellTiter® 96 Aqueous One Solution Cell Proliferation Assay (Promega, G3582) following the manufacturer’s protocol. The assay is based on the reduction of [3-(4,5-dimethylthiazol-2-yl)-5-(3-carboxymethoxyphenyl)-2-(4-sulfophenyl)-2 H-tetrazolium] (MTS) and phenazine ethosulfate into formazan. Compounds 2 and 4b, GM6001 (Merck, 364206) (10–100 µM), or DMSO control were incubated in 48-well Nunc™ plates (Thermo Fisher Scientific,150687) with HEK293T cells, human non-OA chondrocytes, porcine cartilage explants, or human OA cartilage explants for 72 h. At least 3 independent experiments were carried out with 3 technical replicates each. For experiments involving human samples, independent experiments were carried out on 3 different donors. Absorbance at 490 nm was measured on a SpectraMax i3x Multi-Mode Platform (Molecular Devices). Cell viability was normalized to DMSO controls.

In data set [2] the test system is porcine cartilage explants. Put plainly: Cell viability MTS assay. The format is cell-based, pig. The conditions noted are these: 100 µM; 72 h; vs DMSO control. On the procedure:
Porcine articular cartilage from the joints of 3–9 month old pigs was supplied by a local abattoir within 2 h of slaughter and dissected into small pieces approximately 3 mm long and 3–4 mm wide. Each piece weighed roughly 10 mg. After dissection, the cartilage was allowed to acclimatize for 24 h at 37 °C under 5% CO2 in Dulbecco’s Modified Eagle Medium (DMEM) containing 100 U/ml penicillin, 100 µg/ml streptomycin, 10% fetal bovine serum (FBS).
as §1
Background: Tetrazolium assays rely on reduction of a dye to a coloured formazan, in cell work by metabolically active cells.

A further data set deals with HEK293T cells. As to the kind of experiment: Cell viability MTS assay. The format is cell-based, human. The conditions noted are these: 100 µM; 72 h; vs DMSO control. On the procedure: as §1
Data set [3] has as its target T1, ADAMTS4 (Homo sapiens, UniProt O75173).
T1 construct: Human recombinant full-length FLAG-tagged ADAMTS4 and ADAMTS5 were expressed in HEK293T cells; FLAG; made in house; host or cells: HEK293T cells
T1 sequence (O75173 213-837): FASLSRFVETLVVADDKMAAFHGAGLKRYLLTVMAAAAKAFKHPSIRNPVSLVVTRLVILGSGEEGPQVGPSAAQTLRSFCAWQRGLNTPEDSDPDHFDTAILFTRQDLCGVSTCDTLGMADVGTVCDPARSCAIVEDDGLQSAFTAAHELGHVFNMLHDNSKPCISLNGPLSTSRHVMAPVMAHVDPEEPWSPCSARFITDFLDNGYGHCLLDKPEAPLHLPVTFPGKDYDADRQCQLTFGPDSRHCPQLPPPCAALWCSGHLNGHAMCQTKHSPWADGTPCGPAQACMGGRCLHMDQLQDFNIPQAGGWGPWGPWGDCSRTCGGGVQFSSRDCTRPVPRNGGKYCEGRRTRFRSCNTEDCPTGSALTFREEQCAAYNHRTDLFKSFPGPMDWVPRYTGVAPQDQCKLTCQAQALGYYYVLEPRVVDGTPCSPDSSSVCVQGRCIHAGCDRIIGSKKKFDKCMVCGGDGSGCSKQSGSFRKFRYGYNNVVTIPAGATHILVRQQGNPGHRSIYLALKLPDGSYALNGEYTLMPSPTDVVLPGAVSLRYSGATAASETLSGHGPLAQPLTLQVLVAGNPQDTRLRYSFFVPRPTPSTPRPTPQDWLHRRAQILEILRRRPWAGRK
As to the kind of experiment: QF peptide cleavage assay (peptidolytic activity). The format is biochemical. The conditions noted are these: compared to DMSO control. As for the experimental part:
(§2) Human recombinant full-length FLAG-tagged ADAMTS4 and ADAMTS5 were expressed in HEK293T cells (Thermo Fisher Scientific) and purified by anti-FLAG immunoaffinity chromatography as before. Concentrations of active proteases were determined by active-site titrations with known concentrations of TIMP-3 (Bio-Techne, 973-TM-010), using QF peptides as substrates. V1-5GAG, a truncated version of versican V1 isoform comprising residues 21–694 and containing a C-terminal 6x His tag[67], was expressed in HE293T cells and purified by immobilized metal affinity chromatography as before.
QF peptide cleavage assays were conducted in TNC-B (50 mM Tris–HCl, pH 7.5, 150 mM NaCl, 10 mM CaCl2, and 0.02% NaN3) on a SpectraMax i3x Multi-Mode Platform (Molecular Devices, UK) in a total volume of 20 µl at 37℃ as before. ADAMTS4 (3.5 nM) or ADAMTS5 (4 nM) were incubated with compounds 1–4 (100 µM, diluted in TNC-B from 10 mM DMSO stocks) or DMSO for 1 h at 37 ℃ before addition of QF peptides fluorescein-5(6)-carbonyl-[…]N, N,N0,N0-tetramethyl-6-carboxyrhodamine, and fluorescein-5(6)-carbonyl-Thr-Glu-Ser-Glu - […]N, N,N0,N0-tetramethyl-6-carboxyrhodamine, respectively, each at 40 µM. Fluorescence intensity was recorded with an excitation wavelength of 485 nm and an emission wavelength of 535 nm every min for 2 h, expressed as relative fluorescence units and normalized against a blank containing only buffer and substrate. Fluorescence values were converted into residual activity by fixing as 100% the activity of the reactions containing an equal concentration (v/v) of DMSO instead of compound (DMSO control).

Data set [4] addresses T1, ADAMTS4. Put plainly: Versicanase assay (V1-5GAG, versikine sandwich ELISA). The note with it: compared to DMSO control. The data set is classed as biochemical. On the procedure: as §2
Compounds 1–4 (100 µM) or DMSO were incubated with ADAMTS4 (5 nM) or ADAMTS5 (0.4 nM) for 2 h at 37 °C, before addition of V1-5GAG (50 nM). At each time point, reactions were stopped by addition of ethylenediaminetetraacetic acid and ADAMTS-generated versican fragments (versikine) quantified by sandwich ELISA as before[29],[30],[38] using anti-DPEAAE neoepitope antibody (Life Technologies, PA1-1748 A, 5 µg/ml) and polyclonal anti-versican antibody (Abcam, ab171887, 3 µg/ml). For each reaction, the amount of versikine generated was derived from a standard curve (0–1.56 nM) of V1-5GAG completely digested with ADAMTS5. Initial velocities were calculated from the concentration of versikine generated as a function of reaction time. Percent of inhibition was calculated from the DMSO control reactions. IC50 values were determined using the formula: vi/v0 = 1/(1 + [I]/IC50) where vi is the initial velocity of substrate cleavage in the presence of the inhibitor at concentration [I] and v0 is the initial velocity in the presence of an equal concentration (v/v) of DMSO.
A general note: An ELISA detects its analyte on a solid surface through an enzyme-linked reagent.

The pIC50 is the negative decadic logarithm of the IC50, by convention in mol/L. The pEC50 is the negative decadic logarithm of the EC50, by convention in mol/L. In general, inhibition refers to the change of the read-out against control, counted positive when it falls.

pEC50, pIC50: −log10 of the molar value.

In the case of `CC1C(NS(=O)(=O)N2CCc3c(nc4cc(F)ccn34)C2)(C(=O)O)C1(C)c1ccccc1` (centres unmarked) [A], the pIC50 in the data set with ADAMTS5 is 8.08. Consider `C[C@H]1CN(C(=O)CC[C@@]2(C3CC3)NC(=O)NC2=O)CCN1c1cc(F)cc(F)c1` [B, GLPG 1972], for which the pIC50 in the data set on ADAMTS5 was 7.72. Turning to `COc1cc(/C=C/C(=O)CC(=O)/C=C/c2ccc(O)c(O)c2)ccc1O` [CHEMBL103410], the pEC50 with HEK293 is 4.44.

As to `O=C(/C=C/c1ccccc1)c1ccc(O)cc1O` [CHEMBL105310], the pIC50 in the data set on HEK293 (read-out: IC50 (Standard Value)) is 3.96. Take `O=C(/C=C/c1ccc(O)cc1)CC(=O)/C=C/c1ccc(O)cc1` [CHEMBL105350]: in the data set with HEK293, the pEC50 was 3.70. On to `C=CCCNc1nc(NCc2csc(-c3cccs3)n2)nc(N2CCC[C@@H]2CNS(=O)(=O)c2ccc(CCC)cc2)n1` [C], for which the pIC50 in the data set with ADAMTS5 is 7.52. Take `CNC(=O)[C@H](Cc1c[nH]c2ccccc12)NC(=O)[C@@H](CC(=O)NO)CC(C)C` [GM6001, reference compound]: the “inhibition of cell viability” value is “No significant effect” in data set [1] and “Neither 2, nor the broad-spectrum zinc-chelating metalloproteinase inhibitor GM6001[40] had an effect on cell viability” with HEK293T cells. Further, in data set [2], the “decrease of cell viability” value was “did not exhibit cytotoxicity”. As for `CCC(C)N(Cc1cn(CCCCCCO[C@@H]2O[C@H](CO)[C@@H](O)[C@H](O)[C@H]2NC(C)=O)nn1)S(=O)(=O)c1ccc(-c2ccccc2)cc1` (stereo partly drawn) [compound 1, N-((2R,3R,4R,5 S,6R)-2-((6-(4-((N-(sec-butyl)-[1,1’-biphenyl]-4-sulfonamido)methyl)-1H-1,2,3-triazol-1-yl)hexyl)oxy)-4,5-dihydroxy-6-(hydroxymethyl)tetrahydro-2 H-pyran-3-yl)acetamide], at ADAMTS4 [3], the inhibition at 100 µM is 42%. The compound `CCC(C)N(Cc1cn(CCCO[C@@H]2O[C@H](CO[C@@H]3O[C@H](CO)[C@@H](O[C@@H]4O[C@H](CO)[C@H](O)[C@H](O)[C@H]4O)[C@H](O)[C@H]3O)[C@@H](O)[C@H](O)[C@H]2NC(C)=O)nn1)S(=O)(=O)c1ccc(-c2ccccc2)cc1` (stereo partly drawn) [compound 4, N-((2R,3R,4R,5 S,6R)-2-(3-(4-((N-(sec-butyl)-[1,1’-biphenyl]-4-sulfonamido)methyl)-1 H-1,2,3-triazol-1-yl)propoxy)-6-((((2R,3R,4R,5 S,6R)-3,4-dihydroxy-6-(hydroxymethyl)-5-(((2 S,3R,4 S,5R,6R)-3,4,5-trihydroxy-6-(hydroxymethyl)tetrahydro-2 H-pyran-2-yl)oxy)tetrahydro-2 H-pyran-2-yl)oxy)methyl)-4,5-dihydroxytetrahydro-2 H-pyran-3-yl)acetamide] gave an inhibition at 100 µM on ADAMTS4 [4] of 64%.
